Reference: US12178817B2, “Compounds for enhancing PPARγ expression and nuclear translocation and therapeutic use thereof” (REALINN LIFE SCIENCE LIMITED, priority 2015, dated 2024)

Columns and labels:
[1] = test system: mice with LPS-induced sepsis; assay: Survival rate analysis in mice with LPS-induced sepsis; assay type: in vivo; details: high dose
Procedure: Male C57Bl/6J mice, 8-12 weeks of age, were used in this study. They were reared in an air-conditioned environment with 6 am to 18 pm light cycle and fed standard rodent chow ad libitum. […] First, mice were injected intraperitoneally with LPS (16 mg/kg) and followed for 72 hours to observe the survival rate.

PPARγ = assay: Expression of PPARγ in HEK293 cells treated with LPS and dipyridamole (Western blot of nuclear proteins); assay type: cell-based, human
Procedure: The cell line used in the assay was human embryonic kidney cells, HEK293. The cells were collected at 0 h, 3 h and 12 h after treatment. The collected cells were washed with 150 μL Buffer A (10 mM Hepes pH=7.9, 1.5 mM MgCl2, 10 mM KCl, 1.0 mM DTT, 0.1% Triton-X 100), and centrifuged at 3000 g for 10 minutes at 4° C. Supernatant containing cytosolic proteins was collected, and the pellets were re-suspended with 50 μL Buffer B (20 mM Hepes pH=7.9, 1.5 mM MgCl2, 0.42M NaCl, 1.0 mM DTT, 1.0M PMSF, 0.2 mM EDTA) and incubated on ice for 30 minutes followed by centrifuging at 12000 g for 10 minutes at 4° C. Supernatant containing nucleic proteins was then collected, and the expression of P65 protein, which is indicative of the activation of PPARγ, was analyzed using Western blotting. The method is as follows: Protein concentration was measured using Bradford assay. 6× sample buffer (0.8 mM Tris-HCl, 10 mM EDTA, 10% SDS, 60% glycerol, 0.6 M β-mercaptoethano, 0.06% bromophenol blue, pH 6.8) was added into 50 μg of nuclear proteins and an equal volume of lysis buffer was added into the samples. After being heated at 95° C. for 10 minutes to denature the proteins, the samples were immediately cooled on ice. […] Photos of the images were taken using automated chemiluminescence and fluorescence imaging system (UVP Biospectrum). […]

[2] = Non-invasive blood pressure measurement in mice after intravenous administration; details: high dose

In the case of `OCCN(CCO)c1nc(N2CCCCC2)c2nc(N(CCO)CCO)nc(N3CCCCC3)c2n1` [dipyridamole], the “effect on physiological conditions and survival rate” value [1] is reported as “influences physiological conditions and survival rate”, the “PPARγ expression and nuclear translocation” value (PPARγ) is reported as “promote PPARγ expression and nuclear translocation” and the “effect on blood pressure” value [2] is reported as “leads to changes in blood pressure”.
